In US8871753B2, “Macrocyclic compounds and their use as kinase inhibitors” (Incyte Corporation, priority 2008, dated 2014):
Counter-ions that a name gives are not always drawn.

Tests used:
Assay type in all cases: biochemical
[1] = molecular target: T1, human JAK1 (a.a. 837-1142) (Homo sapiens, UniProt P23458); test: In vitro JAK kinase assay (HTRF, phosphorylation of a biotinylated peptide), JAK1; details: Table B1; read-out: JAK1 IC50
T1 construct: human JAK1 (a.a. 837-1142); His tag (N); made in house; host or cells: insect cells (baculovirus)
T1 sequence (P23458 849-1154): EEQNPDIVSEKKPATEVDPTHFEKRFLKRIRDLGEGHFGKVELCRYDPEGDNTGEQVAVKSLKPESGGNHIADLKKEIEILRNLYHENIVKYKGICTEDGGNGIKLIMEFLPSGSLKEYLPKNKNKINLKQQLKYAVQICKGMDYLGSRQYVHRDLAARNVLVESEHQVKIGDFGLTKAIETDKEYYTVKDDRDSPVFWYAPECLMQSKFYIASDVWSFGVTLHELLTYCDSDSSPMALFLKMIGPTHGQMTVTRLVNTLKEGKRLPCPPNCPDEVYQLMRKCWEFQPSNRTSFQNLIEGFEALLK
Outline: (§1)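 Kinase reactions ran at room temperature for 1 h with ATP matched per isoform (JAK1 90 μM, JAK2 30 μM, JAK3 3 μM). After an EDTA stop, the phosphorylated biotin-peptide was read by HTRF using Eu-Py20 and SA-APC after 40 min binding.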

[2] = molecular target: T2, human JAK2 (a.a. 828-1132) (Homo sapiens, UniProt O60674); test: In vitro JAK kinase assay (HTRF, phosphorylation of a biotinylated peptide), JAK2; details: Table B1
T2 construct: JAK2 (a.a. 828-1132); His tag (N); made in house; host or cells: insect cells (baculovirus)
T2 sequence (O60674 828-1132): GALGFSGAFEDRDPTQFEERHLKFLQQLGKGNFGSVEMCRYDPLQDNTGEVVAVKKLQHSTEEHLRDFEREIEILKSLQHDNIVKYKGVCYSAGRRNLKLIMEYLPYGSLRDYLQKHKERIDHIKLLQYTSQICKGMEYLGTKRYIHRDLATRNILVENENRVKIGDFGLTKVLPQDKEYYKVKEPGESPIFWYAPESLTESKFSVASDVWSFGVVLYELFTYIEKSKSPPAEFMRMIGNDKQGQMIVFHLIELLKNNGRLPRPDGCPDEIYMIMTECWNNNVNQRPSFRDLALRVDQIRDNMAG
Outline: as §1

[3] = molecular target: T3, human JAK3 (a.a. 781-1124) (Homo sapiens, UniProt P52333); test: In vitro JAK kinase assay (HTRF, phosphorylation of a biotinylated peptide), JAK3; details: Table B1
T3 construct: JAK3 (a.a. 781-1124); His tag (N); made in house; host or cells: insect cells (baculovirus)
T3 sequence (P52333 781-1124): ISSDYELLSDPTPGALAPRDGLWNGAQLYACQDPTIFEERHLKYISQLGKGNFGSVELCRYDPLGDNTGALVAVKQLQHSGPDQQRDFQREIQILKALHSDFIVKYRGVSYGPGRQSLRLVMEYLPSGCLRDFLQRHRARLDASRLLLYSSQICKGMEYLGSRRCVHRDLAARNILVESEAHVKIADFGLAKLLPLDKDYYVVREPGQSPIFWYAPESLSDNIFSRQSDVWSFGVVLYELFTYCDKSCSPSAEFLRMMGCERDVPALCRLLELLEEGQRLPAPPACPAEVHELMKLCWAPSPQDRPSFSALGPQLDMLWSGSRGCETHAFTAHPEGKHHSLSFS
Outline: as §1

TYK2 = TYK2 (Homo sapiens, UniProt P29597); test: TYK2 kinase inhibition (Table A1); details: Table B1
TYK2, sequence (P29597 whole entry): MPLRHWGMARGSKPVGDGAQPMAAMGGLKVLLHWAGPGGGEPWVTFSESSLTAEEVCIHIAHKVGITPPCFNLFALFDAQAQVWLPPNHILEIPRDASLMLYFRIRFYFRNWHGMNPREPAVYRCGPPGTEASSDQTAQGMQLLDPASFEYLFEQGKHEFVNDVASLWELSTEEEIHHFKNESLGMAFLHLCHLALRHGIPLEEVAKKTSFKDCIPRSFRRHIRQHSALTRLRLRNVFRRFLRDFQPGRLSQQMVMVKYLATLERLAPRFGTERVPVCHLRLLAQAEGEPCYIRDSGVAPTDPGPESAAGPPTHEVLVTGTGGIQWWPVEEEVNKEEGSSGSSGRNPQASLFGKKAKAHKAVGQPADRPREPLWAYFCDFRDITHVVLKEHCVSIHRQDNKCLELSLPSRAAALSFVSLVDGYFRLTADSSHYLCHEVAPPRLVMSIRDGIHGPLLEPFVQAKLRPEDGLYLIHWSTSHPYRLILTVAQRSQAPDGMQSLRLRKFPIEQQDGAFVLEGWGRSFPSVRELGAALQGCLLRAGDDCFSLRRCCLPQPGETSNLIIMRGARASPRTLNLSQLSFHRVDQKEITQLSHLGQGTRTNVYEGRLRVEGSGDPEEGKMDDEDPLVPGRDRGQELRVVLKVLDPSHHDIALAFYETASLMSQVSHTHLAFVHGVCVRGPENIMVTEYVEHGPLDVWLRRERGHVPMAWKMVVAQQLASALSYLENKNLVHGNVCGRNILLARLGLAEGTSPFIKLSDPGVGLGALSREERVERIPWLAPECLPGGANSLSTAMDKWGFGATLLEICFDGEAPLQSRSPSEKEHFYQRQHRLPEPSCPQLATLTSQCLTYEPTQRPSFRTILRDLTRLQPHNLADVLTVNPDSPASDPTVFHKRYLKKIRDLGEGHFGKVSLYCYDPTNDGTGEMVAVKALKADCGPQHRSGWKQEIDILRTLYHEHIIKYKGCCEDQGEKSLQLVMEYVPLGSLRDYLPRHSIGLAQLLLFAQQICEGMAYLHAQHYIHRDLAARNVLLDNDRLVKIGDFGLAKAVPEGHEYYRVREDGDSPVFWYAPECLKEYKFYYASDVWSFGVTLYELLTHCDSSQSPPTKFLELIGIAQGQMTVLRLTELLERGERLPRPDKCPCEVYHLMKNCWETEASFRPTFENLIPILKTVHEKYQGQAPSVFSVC

[4] = molecular target: T4, Recombinant Human Anaplastic Lymphoma Kinase (Homo sapiens, UniProt Q9UM73); test: ALK HTRF kinase assay; details: for IC50: Table B1, cells without percent sign; for ALK % of inhibition at a concentration of 500 nM or 1 mM: compound at a concentration of 500 nM or 1 mM (not specified), cells shown as percentage
T4 construct: purchased Invitrogen, Carlsbad, Calif
T4 sequence (Q9UM73 19-1620): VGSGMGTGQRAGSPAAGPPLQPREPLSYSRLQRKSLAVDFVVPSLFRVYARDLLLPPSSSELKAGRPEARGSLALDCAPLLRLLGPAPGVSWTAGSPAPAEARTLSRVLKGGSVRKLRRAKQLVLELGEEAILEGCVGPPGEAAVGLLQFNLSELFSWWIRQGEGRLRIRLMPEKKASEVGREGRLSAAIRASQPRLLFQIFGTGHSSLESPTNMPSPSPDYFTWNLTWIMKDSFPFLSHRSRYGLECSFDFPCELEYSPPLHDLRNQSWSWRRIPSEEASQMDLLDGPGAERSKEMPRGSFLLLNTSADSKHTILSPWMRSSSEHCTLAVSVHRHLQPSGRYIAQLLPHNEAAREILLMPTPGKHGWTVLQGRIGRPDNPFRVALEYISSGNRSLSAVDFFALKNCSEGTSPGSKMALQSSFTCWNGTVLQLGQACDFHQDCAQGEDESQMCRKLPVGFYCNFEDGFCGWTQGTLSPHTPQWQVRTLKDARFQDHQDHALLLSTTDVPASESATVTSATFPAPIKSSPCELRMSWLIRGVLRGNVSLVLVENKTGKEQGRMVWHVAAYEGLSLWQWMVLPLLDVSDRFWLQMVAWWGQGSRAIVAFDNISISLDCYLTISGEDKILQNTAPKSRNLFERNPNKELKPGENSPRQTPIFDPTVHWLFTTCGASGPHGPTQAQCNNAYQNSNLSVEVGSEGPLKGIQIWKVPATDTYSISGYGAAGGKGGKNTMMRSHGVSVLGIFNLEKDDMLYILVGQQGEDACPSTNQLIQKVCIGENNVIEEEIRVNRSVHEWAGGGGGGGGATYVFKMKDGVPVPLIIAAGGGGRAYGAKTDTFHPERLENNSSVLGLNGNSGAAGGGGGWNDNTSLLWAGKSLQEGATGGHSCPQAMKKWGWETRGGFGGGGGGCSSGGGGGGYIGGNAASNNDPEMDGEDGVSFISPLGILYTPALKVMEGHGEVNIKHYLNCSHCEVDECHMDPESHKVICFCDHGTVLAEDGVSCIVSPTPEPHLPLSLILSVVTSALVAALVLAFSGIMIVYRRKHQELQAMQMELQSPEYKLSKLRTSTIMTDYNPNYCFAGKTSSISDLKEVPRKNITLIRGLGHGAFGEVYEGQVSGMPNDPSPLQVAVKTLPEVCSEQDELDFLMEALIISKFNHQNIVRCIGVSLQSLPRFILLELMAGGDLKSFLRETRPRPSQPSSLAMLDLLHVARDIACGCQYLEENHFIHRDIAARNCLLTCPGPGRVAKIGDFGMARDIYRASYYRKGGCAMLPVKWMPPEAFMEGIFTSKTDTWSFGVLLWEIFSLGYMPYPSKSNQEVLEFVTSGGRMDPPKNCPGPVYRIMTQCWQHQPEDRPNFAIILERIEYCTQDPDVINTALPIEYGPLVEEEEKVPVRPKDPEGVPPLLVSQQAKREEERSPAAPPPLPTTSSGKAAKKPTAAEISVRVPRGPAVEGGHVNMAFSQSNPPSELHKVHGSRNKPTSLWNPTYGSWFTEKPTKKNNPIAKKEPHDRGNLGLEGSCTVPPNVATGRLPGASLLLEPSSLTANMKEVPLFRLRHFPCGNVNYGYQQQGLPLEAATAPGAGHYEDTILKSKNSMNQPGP
Outline: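 Readout was HTRF between a Eu-W1024 anti-phosphotyrosine antibody and streptavidin-APC bound to biotinylated peptide phosphorylated by recombinant human ALK. IC50 values came from a four-parameter logistic fit.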

Work on `N#Cc1ccc(S(=O)(=O)Nc2ccc3cc2CCc2cccc(c2)Nc2ncc(Cl)c(n2)N3)cc1` [Example B154, N-[6-Chloro-2,4,8,22-tetraazatetracyclo[14.3.1.1(3,7).1(9,13)]docosa-1(20), 3(22),4,6,9(21),10,12,16,18-nonaen-12-yl]-4-cyanobenzenesulfonamide trifluoroacetate] yielded an IC50 [1] of 0.6 nM, an IC50 [2] of 0.1 nM and an IC50 [3] of 5.3 nM. It also gave an IC50 (TYK2) of 0.83 nM and an IC50 [4] of 280 nM.
`N#Cc1ccccc1S(=O)(=O)Nc1ccc2cc1CCc1cccc(c1)Nc1ncc(Cl)c(n1)N2` [Example B155, N-[6-Chloro-2,4,8,22-tetraazatetracyclo[14.3.1.1(3,7).1(9,13)]docosa-1(20), 3(22),4,6,9(21),10,12,16,18-nonaen-12-yl]-2-cyanobenzenesulfonamide trifluoroacetate] gave an IC50 [1] of 1.3 nM, an IC50 [2] of 2.4 nM and an IC50 [3] of 40 nM. It also gave an IC50 (TYK2) of 2.2 nM and an IC50 [4] of over 1000 nM.
`COc1ccc(S(=O)(=O)Nc2ccc3cc2CCc2cccc(c2)Nc2ncc(Cl)c(n2)N3)cc1` [Example B156, N-[6-Chloro-2,4,8,22-tetraazatetracyclo[14.3.1.1(3,7).1(9,13)]docosa-1(20), 3(22),4,6,9(21),10,12,16,18-nonaen-12-yl]-4-methoxybenzenesulfonamide trifluoroacetate] gave an IC50 [1] of 0.75 nM, an IC50 [2] of 1.5 nM and an IC50 [3] of 17 nM. For the same compound, the IC50 (TYK2) was 2.7 nM and the “ALK % of inhibition at a concentration of 500 nM or 1 mM” value (“ALK % of inhibition” below) [4] was 28%.
`COc1cccc(S(=O)(=O)Nc2ccc3cc2CCc2cccc(c2)Nc2ncc(Cl)c(n2)N3)c1` [Example B157, N-[6-Chloro-2,4,8,22-tetraazatetracyclo[14.3.1.1(3,7).1(9,13)]docosa-1(20), 3(22),4,6,9(21),10,12,16,18-nonaen-12-yl]-3-methoxybenzenesulfonamide trifluoroacetate] gave an IC50 [1] of 0.51 nM, an IC50 [2] of 0.15 nM and an IC50 [3] of 0.3 nM. The IC50 (TYK2) was 0.62 nM and the “ALK % of inhibition” value [4] was 87%.
Work on `O=S(=O)(Nc1ccc2cc1CCc1cccc(c1)Nc1ncc(Cl)c(n1)N2)C1CC1` [Example B158, N-[6-Chloro-2,4,8,22-tetraazatetracyclo[14.3.1.1(3,7).1(9,13)]docosa-1(20), 3(22),4,6,9(21),10,12,16,18-nonaen-12-yl]cyclopropanesulfonamide trifluoroacetate] yielded an IC50 [1] of 0.15 nM, an IC50 [2] of 0.15 nM and an IC50 [3] of 0.64 nM. For the same compound, the IC50 (TYK2) was 0.49 nM and the “ALK % of inhibition” value [4] was 71%.
Work on `O=C(O)c1cccc(S(=O)(=O)Nc2ccc3cc2CCc2cccc(c2)Nc2ncc(Cl)c(n2)N3)c1` [Example B159, 3-({[6-Chloro-2,4,8,22-tetraazatetracyclo[14.3.1.1(3,7).1(9,13)]docosa-1(20),3(22),4,6,9(21),10,12,16,18-nonaen-12-yl]amino}sulfonyl)benzoic acid trifluoroacetate] yielded an IC50 [1] of 1.3 nM, an IC50 [2] of 0.46 nM and an IC50 [3] of 3.1 nM. For the same compound, the IC50 (TYK2) was 1.6 nM and the “ALK % of inhibition” value [4] was 82%.
`O=S(=O)(Nc1ccc2cc1CCc1cccc(c1)Nc1ncc(Cl)c(n1)N2)c1cccc2cccnc12` [Example B160, N-[6-Chloro-2,4,8,22-tetraazatetracyclo[14.3.1.1(3,7).1(9,13)]docosa-1(20), 3(22),4,6,9(21),10,12,16,18-nonaen-12-yl]quinoline-8-sulfonamide bis(trifluoroacetate)] showed an IC50 [1] of 12 nM, an IC50 [2] of 6.4 nM and an IC50 [3] of 102 nM. The IC50 (TYK2) was 2.4 nM and the “ALK % of inhibition” value [4] was 4.6%.
In the case of `CC(=O)Nc1ccc(S(=O)(=O)Nc2ccc3cc2CCc2cccc(c2)Nc2ncc(Cl)c(n2)N3)cc1` [Example B161, N-[4-({[6-Chloro-2,4,8,22-tetraazatetracyclo[14.3.1.1(3,7).1(9,13)]docosa-1(20),3(22),4,6,9(21),10,12,16,18-nonaen-12-yl]amino}sulfonyl)phenyl]acetamide trifluoroacetate], the IC50 [1] is reported as 1.6 nM, the IC50 [2] is reported as 1.1 nM and the IC50 [3] is reported as 8.5 nM. The IC50 (TYK2) was 2.6 nM and the “ALK % of inhibition” value [4] was 58%.
`O=S(=O)(Nc1ccc2cc1CCc1cccc(c1)Nc1ncc(Cl)c(n1)N2)c1ccc(C(F)(F)F)cc1` [Example B162, N-[6-Chloro-2,4,8,22-tetraazatetracyclo[14.3.1.1(3,7).1(9,13)]docosa-1(20), 3(22),4,6,9(21),10,12,16,18-nonaen-12-yl]-4-(trifluoromethyl)benzenesulfonamide trifluoroacetate] was tested, and the IC50 [1] was 1.7 nM, the IC50 [2] was 2.7 nM and the IC50 [3] was 26 nM. For the same compound, the IC50 (TYK2) was 4.3 nM and the “ALK % of inhibition” value [4] was 16%.
Work on `O=S(=O)(Nc1ccc2cc1CCc1cccc(c1)Nc1ncc(Cl)c(n1)N2)c1cccc(C(F)(F)F)c1` [Example B163, N-[6-Chloro-2,4,8,22-tetraazatetracyclo[14.3.1.1(3,7).1(9,13)]docosa-1(20), 3(22),4,6,9(21),10,12,16,18-nonaen-12-yl]-3-(trifluoromethyl)benzenesulfonamide trifluoroacetate] yielded an IC50 [1] of 0.54 nM, an IC50 [2] of 0.24 nM and an IC50 [3] of 1.1 nM. For the same compound, the IC50 (TYK2) was 0.97 nM and the “ALK % of inhibition” value [4] was 80%.
Compound `CN1CCOc2cc(S(=O)(=O)Nc3ccc4cc3CCc3cccc(c3)Nc3ncc(Cl)c(n3)N4)ccc21` [Example B165, N-[6-Chloro-2,4,8,22-tetraazatetracyclo[14.3.1.1(3,7).1(9,13)]docosa-1(20),3(22),4,6,9(21),10,12,16,18-nonaen-12-yl]-4-methyl-3,4-dihydro-2H-1,4-benzoxazine-7-sulfonamide trifluoroacetate] has an IC50 [1] of 13 nM, an IC50 [2] of 10 nM and an IC50 [3] of 83 nM. The IC50 (TYK2) was 20 nM and the “ALK % of inhibition” value [4] was 10%.
In the case of `CC(C)(C)OC(=O)N1CC[C@H](NC(=O)Nc2ccc3cc2CCc2cccc(c2)Nc2ncc(Cl)c(n2)N3)C1` [Example B166, tert-Butyl (3S)-3-[({[6-chloro-2,4,8,22-tetraazatetracyclo[14.3.1.1(3,7).1(9,13)]docosa-1(20),3(22),4,6,9(21),10,12,16,18-nonaen-12-yl]amino}carbonyl)amino]pyrrolidine-1-carboxylate], the IC50 [1] is reported as 3.6 nM, the IC50 [2] is reported as 7.4 nM and the IC50 [3] is reported as 39 nM. The IC50 (TYK2) was 17 nM and the “ALK % of inhibition” value [4] was 15%.
Compound `O=C(Nc1ccc2cc1CCc1cccc(c1)Nc1ncc(Cl)c(n1)N2)N[C@H]1CCNC1` [Example B167, N-[6-Chloro-2,4,8,22-tetraazatetracyclo[14.3.1.1(3,7).1(9,13)]docosa-1(20),3(22),4,6,9(21),10,12,16,18-nonaen-12-yl]-N′-[(3S)-pyrrolidin-3-yl]urea bis(trifluoroacetate)] has an IC50 [1] of 3.7 nM, an IC50 [2] of 12 nM and an IC50 [3] of 43 nM. For the same compound, the IC50 (TYK2) was 30 nM and the “ALK % of inhibition” value [4] was 17%.
`CC(=O)N1CC[C@H](NC(=O)Nc2ccc3cc2CCc2cccc(c2)Nc2ncc(Cl)c(n2)N3)C1` [Example B168, N-[(3S)-1-Acetylpyrrolidin-3-yl]-N′-[6-chloro-2,4,8,22-tetraazatetracyclo[14.3.1.1(3,7).1(9,13)]docosa-1(20),3(22),4,6,9(21),10,12,16,18-nonaen-12-yl]urea trifluoroacetate] was tested, and the IC50 [1] was 2.8 nM, the IC50 [2] was 12 nM and the IC50 [3] was 67 nM. For the same compound, the IC50 (TYK2) was 17 nM and the “ALK % of inhibition” value [4] was 21%.
With `CNC(=O)N1CC[C@H](NC(=O)Nc2ccc3cc2CCc2cccc(c2)Nc2ncc(Cl)c(n2)N3)C1` [Example B169, (3S)-3-[({[6-Chloro-2,4,8,22-tetraazatetracyclo[14.3.1.1(3,7).1(9,13)]docosa-1(20),3(22),4,6,9(21),10,12,16,18-nonaen-12-yl]amino}carbonyl)amino]-N-methylpyrrolidine-1-carboxamide Trifluoracetate] the IC50 [1] was 3.3 nM, the IC50 [2] was 12 nM and the IC50 [3] was 47 nM. The IC50 (TYK2) was 26 nM and the “ALK % of inhibition” value [4] was 17%.
For `O=C(Nc1ccc2cc1CCc1cccc(c1)Nc1ncc(Cl)c(n1)N2)N[C@H]1CCN(C(=O)c2ccccc2)C1` [Example B170, N-[(3S)-1-Benzoylpyrrolidin-3-yl]-N′-[6-chloro-2,4,8,22-tetraazatetracyclo[14.3.1.1(3,7).1(9,13)]docosa-1(20),3(22),4,6,9(21),10,12,16,18-nonaen-12-yl]urea trifluoroacetate], the IC50 [1] was 1.6 nM, the IC50 [2] was 17 nM and the IC50 [3] was 228 nM. The IC50 (TYK2) was 34 nM and the “ALK % of inhibition” value [4] was 12%.
With `O=C(Nc1ccc2cc1CCc1cccc(c1)Nc1ncc(Cl)c(n1)N2)N[C@H]1CCN(C(=O)c2cccnc2)C1` [Example B171, N-[6-Chloro-2,4,8,22-tetraazatetracyclo[14.3.1.1(3,7).1(9,13)]docosa-1(20),3(22),4,6,9(21),10,12,16,18-nonaen-12-yl]-N′-[(3S)-1-(pyridin-3-ylcarbonyl)pyrrolidin-3-yl]urea bis(trifluoroacetate)] the IC50 [1] was 2.8 nM, the IC50 [2] was 12 nM and the IC50 [3] was 51 nM. For the same compound, the IC50 (TYK2) was 30 nM and the “ALK % of inhibition” value [4] was 15%.
